These results are taken from EP0596406B1, “Imidazo (1,2-a) Pyridines as bradykinin antagonists” (FUJISAWA PHARMACEUTICAL CO., LTD., priority 1992, dated 1994).

Structures can show the parent of a compound that is named as a salt.

The first assay concerns the target T1, Bradykinin receptor (Cavia porcellus, UniProt O70526).
T1 construct: The ileum was removed and homogenized in buffer; from tissue; host or cells: guinea pig ileum, crude membrane suspension
T1 sequence (O70526 1-372): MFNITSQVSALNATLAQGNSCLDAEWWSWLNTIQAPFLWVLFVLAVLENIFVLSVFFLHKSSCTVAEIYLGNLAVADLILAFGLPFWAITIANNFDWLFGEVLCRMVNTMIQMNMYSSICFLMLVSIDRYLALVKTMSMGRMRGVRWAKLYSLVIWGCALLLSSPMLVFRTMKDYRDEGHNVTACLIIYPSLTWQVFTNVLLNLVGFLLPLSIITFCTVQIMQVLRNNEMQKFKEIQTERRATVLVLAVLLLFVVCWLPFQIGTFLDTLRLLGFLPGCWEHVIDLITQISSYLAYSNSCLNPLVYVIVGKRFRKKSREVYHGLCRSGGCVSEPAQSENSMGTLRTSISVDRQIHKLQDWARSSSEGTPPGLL
As to the kind of experiment: ^3H-Bradykinin receptor binding (crude guinea pig ileum membrane). Further details: species or system guinea pigs. Particulars: drug 1 x 10^-5M; ^3H-Bradykinin 0.06 nM; crude ileum membrane suspension; room temperature for 60 minutes; 10 µM. The method, then: (a) Crude ileum membrane preparation
Male Hartly strain guinea pigs were sacrificed by decapitation. The ileum was removed and homogenized in buffer (50 mM trimethylaminoethanesulfonic acid (TES), 1 mM 1,10-phenanthroline pH 6.8). The homogenate was centrifuged (1000 xg, 20 minutes) to remove tissue clumps and the supernatant was centrifuges (100,000 xg, 60 minutes) to yield a pellet. The pellet was resuspended in buffer (50 mM TES, 1 mM 1,10-phenanthroline, 140 mg/ℓ bacitracin, 1 mM dithiothreiol, 0.1 % bovine serum albumin pH 6.8) and homogenized with a glass-teflon homogenizer to yield suspension which was referred to as crude membrane suspension. The obtained membrane suspension was stored at -80°C until use.
(b) ^3H-Bradykinin binding to the membrane
The frozen crude membrane suspension was thawed. In binding assays, ^3H-Bradykinin (0.06 nM) and drug (1 x 10^-5M) were incubated with 50 µl of the membrane suspension at room temperature for 60 minutes in a final volume of 250 µl. Separation of receptor-bound from free ^3H-Bradykinin is achieved by immediate filtration under vacuum and washed three times with 5 ml of ice-cold buffer (50 mM Tris-HCl pH 7.5). Non-specific binding was defined as binding in the presence of 0.1 µM Bradykinin. The radioactivity retained on rinsed filters was determined by a liquid-scintillation counter.
`Cc1nc2c(OCc3c(Cl)ccc(N(C)C(=O)CNC(=O)Nc4cccnc4)c3Cl)cccn2c1Br.Cl.Cl` [61-(54), 3-Bromo-8-[2,6-dichloro-3-[N-[N'-(3-pyridyl)ureidoacetyl]-N-methylamino]benzyloxy]-2-methylimidazo[1,2-a]pyridine dihydrochloride]: the “Inhibition % of ^3H-Bradykinin binding (concentration : 1 x 10^-5M)” value was determined as 100%. Same read-out and setting: the same measure for `CCCNC(=O)NCC(=O)N(C)c1ccc(Cl)c(COc2cccn3c(Br)c(C)nc23)c1Cl.Cl` [61-(51), 3-Bromo-8-[2,6-dichloro-3-[N-(N'-n-propylureidoacetyl)-N-methylamino]benzyloxy]-2-methylimidazo[1,2-a]pyridine hydrochloride]: 100%.

Staying with this assay, now noted: drug 1 x 10^-5M; ^3H-Bradykinin 0.06 nM; crude ileum membrane suspension; room temperature for 60 minutes; read-out: Inhibition % of ^3H-Bradykinin binding (concentration : 1 x 10^-5M).
Turning to `Cc1nc2c(OCc3c(Cl)ccc(N(C)C(=O)CNC(=S)Nc4ccccc4)c3Cl)cccn2c1Cl` [Example 47, 3-Chloro-8-[2,6-dichloro-3-[N-(N'-phenylthioureidoacetyl)-N-methylamino]benzyloxy]-2-methylimidazo[1,2-a]pyridine], the inhibition at 10 µM came to 100%. Same read-out and setting: for `CC(=O)NCC(=O)N(C)c1ccc(Cl)c(COc2cccn3c(Br)c(C)nc23)c1Cl` [61-(5), 8-[3-[N-(Acetylglycyl)-N-methylamino]-2,6-dichlorobenzyloxy]-3-bromo-2-methylimidazo[1,2-a]pyridine hydrochloride] the value was 99%. Regarding `Cc1nc2c(OCc3c(Cl)ccc(N(C)C(=O)CNC(=O)[C@H]4CCCN4)c3Cl)cccn2c1Br` [Example 49, 3-Bromo-8-[2,6-dichloro-3-[N-(D-prolylglycyl)-N-methylamino]benzyloxy]-2-methylimidazo[1,2-a]pyridine dihydrochloride], the inhibition at 10 µM was 100%. Still for that read-out and setting: the same measure for `Cc1nc2c(OCc3c(Cl)ccc(N(C)C(=O)CNC(C)C)c3Cl)cccn2c1Br` [61-(23), 3-Bromo-8-[2,6-dichloro-3-[N-(isopropylglycyl)-N-methylamino]benzyloxy]-2-methylimidazo[1,2-a]pyridine dihydrochloride]: 100%; for `Cc1nc2c(OCc3c(Cl)ccc(N(C)C(=O)CNC(=O)CN(C)C)c3Cl)cccn2c1Br` [61-(41), 3-Bromo-8-[2,6-dichloro-3-[N-[(N,N-dimethylglycyl)glycyl]-N-methylamino]benzyloxy]-2-methylimidazo[1,2-a]pyridine dihydrochloride]: 100%. Regarding `Cc1nc2c(OCc3c(Cl)ccc(N(C)C(=O)CNC(=O)Cc4ccccc4)c3Cl)cccn2c1Br` [61-(13), 3-Bromo-8-[2,6-dichloro-3-[N-(phenylacetylglycyl)-N-methylamino]benzyloxy]-2-methylimidazo[1,2-a]pyridine hydrochloride], the inhibition at 10 µM came out at 98%.

For the compound `CC(=O)N(C)c1ccc(Cl)c(COc2cccn3c(Br)c(C)nc23)c1Cl` [61-(1), 3-Bromo-8-[2,6-dichloro-3-(N-acetyl-N-methylamino)benzyloxy]-2-methylimidazo[1,2-a]pyridine hydrochloride], the inhibition at 10 µM amounted to 95%.

As to `CC(=O)NCC(=O)NCC(=O)N(C)c1ccc(Cl)c(COc2cccn3c(Br)c(C)nc23)c1Cl` [61-(18), 8-[3-[N-(Acetylglycylglycyl)-N-methylamino]-2,6-dichlorobenzyloxy]-3-bromo-2-methylimidazo[1,2-a]pyridine hydrochloride], the inhibition at 10 µM was determined as 97%.

Regarding `CCCC(=O)NCC(=O)N(C)c1ccc(Cl)c(COc2cccn3c(Br)c(C)nc23)c1Cl` [61-(7), 3-Bromo-8-[3-[N-(butyrylglycyl)-N-methylamino]-2,6-dichlorobenzyloxy]-2-methylimidazo[1,2-a]pyridine hydrochloride], the inhibition at 10 µM was found to be 100%. Same read-out and setting: for `COCC(=O)NCC(=O)CC(=O)N(C)c1ccc(Cl)c(COc2cccn3c(Br)c(C)nc23)c1Cl` [61-(16), 3-Bromo-8-[2,6-dichloro-3-[N-(methoxyacetylglycyl)acetyl-N-methylamino]benzyloxy]-2-methylimidazo[1,2-a]pyridine hydrochloride] the value was 100%. Still for that read-out and setting: the same measure for `Cc1nc2c(OCc3c(Cl)ccc([N+](=O)[O-])c3Cl)cccn2c1Br` [Example 60, 3-bromo-8-(2,6-dichloro-3-nitrobenzyloxy)-2-methylimidazo[1,2-a]pyridine hydrochloride]: 100%; for `CCNC(=O)NCC(=O)N(C)c1ccc(Cl)c(COc2cccn3c(Br)c(C)nc23)c1Cl` [61-(28), 3-Bromo-8-[2,6-dichloro-3-[N-(N'-ethylureidoacetyl)-N-methylamino]benzyloxy]-2-methylimidazo[1,2-a]pyridine hydrochloride]: 99%; for `Cc1nc2c(OCc3c(Cl)ccc(N(C)C(=O)CNC(=O)c4ccccc4)c3Cl)cccn2c1Br` [61-(11), 8-[3-[N-(Benzoylglycyl)-N-methylamino]-2,6-dichlorobenzyloxy]-3-bromo-2-methylimidazo[1,2-a]pyridine hydrochloride]: 98%.

Still in this assay, the particulars now being: read-out: Inhibition % of ^3H-Bradykinin binding (concentration : 1 x 10^-5M).
For `Cc1nc2c(OCc3c(Cl)ccc(N(C)C(=O)CNC(=O)Oc4ccc([N+](=O)[O-])cc4)c3Cl)cccn2c1Br` [40-(21), 3-Bromo-8-[2,6-dichloro-3-[N-(4-nitrophenoxycarbonylglycyl)-N-methylamino]benzyloxy]-2-methylimidazo[1,2-a]pyridine], the inhibition at 10 µM came out at 97%.
